# Source: ChEMBL document CHEMBL1201862, “PubChem BioAssay data set” (2004)
#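 1) Cells in 96-well plates. 2) Compound, 48 h, 5 concentrations. 3) Linear interpolation between surrounding doses. 4) Unreached endpoint = highest concentration. GI50 = concentration required for 50% inhibition of growth.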 The source made the active and inactive calls. Cut-off read from the data, not from the text of the source: active = GI50 up to about 1.1 µM and inactive = higher.
# Tests used:
# Test in all cases: NCI-60 cell line screen, 48 h
# [1] = test system: RXF 393
# [2] = test system: SK-MEL-2
# [3] = test system: HCC 2998
# [4] = test system: SK-MEL-5
# [5] = test system: M14
# [6] = test system: OVCAR-4
# [7] = test system: HOP-62
# [8] = test system: SW-620
# [9] = test system: NCI-H522
# [10] = test system: MOLT-4
# [11] = test system: UACC-257
# [12] = test system: SR
# [13] = test system: HCT-116
# [14] = test system: SNB-19
# [15] = test system: A549
# [16] = test system: KM12
# [17] = test system: SF-268
SMILES,GI50 [1],GI50 [2],GI50 [3],GI50 [4],GI50 [5],GI50 [6],GI50 [7],GI50 [8],GI50 [9],GI50 [10],GI50 [11],GI50 [12],GI50 [13],GI50 [14],GI50 [15],GI50 [16],GI50 [17]
Cc1ccc(C[P+]2(c3ccccc3)CCCCC2)cc1.[O-][Cl+3]([O-])([O-])[O-],> 100 µM (inactive),30.9 µM (inactive),21 µM (inactive),10.6 µM (inactive),25.8 µM (inactive),41.4 µM (inactive),99.8 µM (inactive),33.3 µM (inactive),16.1 µM (inactive),33 µM (inactive),6.28 µM (inactive),23.1 µM (inactive),1.33 µM (inactive),32.3 µM (inactive),73.5 µM (inactive),28.5 µM (inactive),
COC(=O)[C@@]12C(=O)CCC(=O)C1C1C(=CC2C)O[C@@H]2OC3(CCCCC3)O[C@H]12 (stereo partly drawn),69.2 µM (inactive),> 100 µM (inactive),> 100 µM (inactive),> 100 µM (inactive),> 100 µM (inactive),59.2 µM (inactive),> 100 µM (inactive),48.1 µM (inactive),18.6 µM (inactive),27.4 µM (inactive),> 100 µM (inactive),25.9 µM (inactive),43.8 µM (inactive),> 89.5 µM (inactive),> 100 µM (inactive),64.1 µM (inactive),> 91.2 µM (inactive)
CCCCCCCCCCC(=O)CC(=O)c1c(O)cccc1O,26.3 µM (inactive),,27.8 µM (inactive),28.4 µM (inactive),40.2 µM (inactive),43.1 µM (inactive),24.1 µM (inactive),34.2 µM (inactive),28.1 µM (inactive),20.4 µM (inactive),31.2 µM (inactive),33.6 µM (inactive),19.5 µM (inactive),61.8 µM (inactive),32.4 µM (inactive),33 µM (inactive),41.1 µM (inactive)
NC(=O)C1C(=O)Oc2cccnc21 (stereo not drawn),> 100 µM (inactive),,,> 100 µM (inactive),> 100 µM (inactive),,> 100 µM (inactive),83 µM (inactive),> 100 µM (inactive),> 100 µM (inactive),89.9 µM (inactive),,> 100 µM (inactive),> 100 µM (inactive),> 100 µM (inactive),> 100 µM (inactive),
CSC(=S)c1ccc(C(=S)SC)cc1,> 100 µM (inactive),,> 100 µM (inactive),> 100 µM (inactive),> 100 µM (inactive),> 100 µM (inactive),> 100 µM (inactive),> 100 µM (inactive),> 100 µM (inactive),> 100 µM (inactive),> 100 µM (inactive),> 100 µM (inactive),> 100 µM (inactive),> 100 µM (inactive),> 100 µM (inactive),> 100 µM (inactive),> 100 µM (inactive)
[O-][S+]1c2ccccc2N=C(c2cccs2)CC1c1ccccc1O (stereo not drawn),63.1 µM (inactive),> 100 µM (inactive),96.6 µM (inactive),> 100 µM (inactive),> 100 µM (inactive),> 100 µM (inactive),97.5 µM (inactive),> 100 µM (inactive),65.2 µM (inactive),> 100 µM (inactive),> 100 µM (inactive),,,> 100 µM (inactive),> 100 µM (inactive),93.5 µM (inactive),> 100 µM (inactive)
CCCOC(=O)C1CCC(=O)N1C(=O)C(Cl)Cl (stereo not drawn),,> 100 µM (inactive),> 100 µM (inactive),> 100 µM (inactive),> 100 µM (inactive),> 100 µM (inactive),> 100 µM (inactive),> 100 µM (inactive),> 100 µM (inactive),> 100 µM (inactive),> 100 µM (inactive),,> 100 µM (inactive),> 100 µM (inactive),> 100 µM (inactive),> 100 µM (inactive),> 100 µM (inactive)
COC(=O)C(C(=O)C(=O)Nc1ccc([N+](=O)[O-])cc1[N+](=O)[O-])c1nc2ccc(Cl)cc2nc1O (stereo not drawn),30.5 µM (inactive),> 100 µM (inactive),> 100 µM (inactive),99.8 µM (inactive),> 100 µM (inactive),> 100 µM (inactive),> 100 µM (inactive),> 100 µM (inactive),,73.1 µM (inactive),> 100 µM (inactive),,> 100 µM (inactive),> 100 µM (inactive),> 100 µM (inactive),> 100 µM (inactive),> 100 µM (inactive)
CC(=O)OCC1(C)C(OC(C)=O)CCC2(C)C(CC(OC(C)=O)C3=CCOC3=O)C(O)(CO)CCC12 (stereo not drawn),> 100 µM (inactive),,> 100 µM (inactive),> 100 µM (inactive),> 100 µM (inactive),> 100 µM (inactive),> 100 µM (inactive),> 100 µM (inactive),> 100 µM (inactive),,> 100 µM (inactive),,> 100 µM (inactive),> 100 µM (inactive),> 100 µM (inactive),> 100 µM (inactive),> 100 µM (inactive)
CC(=O)c1sc(-c2nc(C)c(C(=O)/C=C\c3ccc(/C=C\C(=O)c4sc(-c5nc(C)c(C(C)=O)s5)nc4C)cc3)s2)nc1C,> 100 µM (inactive),> 100 µM (inactive),> 100 µM (inactive),,> 100 µM (inactive),> 100 µM (inactive),> 100 µM (inactive),> 100 µM (inactive),> 100 µM (inactive),> 100 µM (inactive),> 100 µM (inactive),> 100 µM (inactive),> 100 µM (inactive),> 100 µM (inactive),> 100 µM (inactive),> 100 µM (inactive),> 100 µM (inactive)
COc1ccc(Cc2c(=O)[nH]nc3ccccc23)cc1,,> 100 µM (inactive),> 100 µM (inactive),35.2 µM (inactive),> 100 µM (inactive),> 100 µM (inactive),> 100 µM (inactive),> 100 µM (inactive),,> 100 µM (inactive),> 100 µM (inactive),,> 100 µM (inactive),> 100 µM (inactive),43.6 µM (inactive),> 100 µM (inactive),> 100 µM (inactive)
Cc1ccc(-c2cc(=O)c3cc(C)c(C)c(C(=O)O)c3o2)cc1[N+](=O)[O-],> 100 µM (inactive),> 100 µM (inactive),,> 100 µM (inactive),> 100 µM (inactive),> 100 µM (inactive),,> 100 µM (inactive),> 100 µM (inactive),> 100 µM (inactive),> 100 µM (inactive),,> 100 µM (inactive),> 100 µM (inactive),> 100 µM (inactive),> 100 µM (inactive),> 100 µM (inactive)
O=C(O)OC12CCCCCC1C(=O)C1CCCCC12 (stereo not drawn),39.3 µM (inactive),> 100 µM (inactive),,> 100 µM (inactive),> 100 µM (inactive),> 100 µM (inactive),> 100 µM (inactive),> 100 µM (inactive),65.8 µM (inactive),46 µM (inactive),> 100 µM (inactive),47 µM (inactive),57.4 µM (inactive),89.5 µM (inactive),> 100 µM (inactive),> 100 µM (inactive),61.5 µM (inactive)
O=C(NCC(O)CNC(=O)C(F)(F)F)C(F)(F)F,> 100 µM (inactive),,> 100 µM (inactive),> 100 µM (inactive),> 100 µM (inactive),> 100 µM (inactive),> 100 µM (inactive),> 100 µM (inactive),> 100 µM (inactive),> 100 µM (inactive),> 100 µM (inactive),> 100 µM (inactive),> 100 µM (inactive),> 100 µM (inactive),> 100 µM (inactive),> 100 µM (inactive),> 100 µM (inactive)
Cc1ccc(N2C(=O)CS/C2=C(\C#N)c2nc3ccccc3[nH]2)cc1,,> 100 µM (inactive),> 100 µM (inactive),> 100 µM (inactive),> 100 µM (inactive),> 100 µM (inactive),> 100 µM (inactive),> 100 µM (inactive),> 100 µM (inactive),> 100 µM (inactive),> 100 µM (inactive),> 100 µM (inactive),> 100 µM (inactive),> 100 µM (inactive),> 100 µM (inactive),> 100 µM (inactive),> 100 µM (inactive)
Cc1cc(Cl)ccc1N1C(=O)C(=O)C(c2nc3ccccc3s2)/C(=N\NC(=O)c2ccccc2O)C1=O (stereo not drawn),> 100 µM (inactive),> 100 µM (inactive),> 100 µM (inactive),> 100 µM (inactive),> 100 µM (inactive),> 100 µM (inactive),> 100 µM (inactive),> 100 µM (inactive),> 100 µM (inactive),,> 100 µM (inactive),> 100 µM (inactive),> 100 µM (inactive),> 100 µM (inactive),> 100 µM (inactive),> 100 µM (inactive),> 100 µM (inactive)
Cc1nc2ccc(N)cc2nc1O,,> 100 µM (inactive),> 100 µM (inactive),> 100 µM (inactive),> 100 µM (inactive),> 100 µM (inactive),> 100 µM (inactive),> 100 µM (inactive),,> 100 µM (inactive),> 100 µM (inactive),,> 100 µM (inactive),> 100 µM (inactive),> 100 µM (inactive),> 100 µM (inactive),
CN(C)CC(C)(C)C(=O)/C=C/c1ccc(/C=C/C(=O)C(C)(C)CN(C)C)cc1,1.17 µM (inactive),,1.66 µM (inactive),2.32 µM (inactive),1.62 µM (inactive),1.02 µM (active),2.14 µM (inactive),0.706 µM (active),0.136 µM (active),0.519 µM (active),2.09 µM (inactive),2.28 µM (inactive),1.26 µM (inactive),1.96 µM (inactive),2.79 µM (inactive),1.85 µM (inactive),1.35 µM (inactive)
